Data on three molecules can be found in PMC3829359 (The Journal of Biological Chemistry, 2021).

Test [1] concerns the target T1, DC-SIGNR CRD (Homo sapiens, UniProt Q9H2X3).
T1 sequence (Q9H2X3 262-399): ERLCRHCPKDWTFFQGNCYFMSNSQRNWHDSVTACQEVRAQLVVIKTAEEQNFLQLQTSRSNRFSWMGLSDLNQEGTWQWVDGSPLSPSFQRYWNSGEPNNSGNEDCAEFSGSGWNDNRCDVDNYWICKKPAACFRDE
As to the kind of experiment: 1H-15N HSQC NMR titration, chemical shift perturbation, […] fit. It is filed as binding. Particulars: pH 6.8, 37 °C, 20 mM HEPES-d18, 20 mM NaCl, 4 mM Ca2+, 0.7 mM protein.

The target in test [2] is T1, DC-SIGNR CRD. The test is described as follows: 1H-15N HSQC NMR titration, chemical shift perturbation. It is filed as binding. Particulars: pH 6.8, 37 °C, 20 mM HEPES-d18, 20 mM NaCl, 4 mM Ca2+, 0.7 mM protein; intermediate exchange, severe line broadening, KD could not be estimated.

In the case of `OC[C@H]1O[C@H](OC[C@H]2OC(O)[C@@H](O)[C@@H](O[C@H]3O[C@H](CO)[C@@H](O)[C@H](O)[C@@H]3O)[C@@H]2O)[C@@H](O)[C@@H](O)[C@@H]1O` (stereo partly drawn) [Man3], on DC-SIGNR CRD [1], the Kd came out at 2040 ± 540 µM.
On the same count and under the same terms, under `OC[C@H]1O[C@H](OC[C@H]2O[C@H](OC[C@H]3OC(O)[C@@H](O)[C@@H](O[C@H]4O[C@H](CO)[C@@H](O)[C@H](O)[C@@H]4O)[C@@H]3O)[C@@H](O)[C@@H](O[C@H]3O[C@H](CO)[C@@H](O)[C@H](O)[C@@H]3O)[C@@H]2O)[C@@H](O)[C@@H](O)[C@@H]1O` (stereo partly drawn) [Man5] stands 2200 ± 430 µM.
As for `CC(=O)N[C@H]1C(O)O[C@H](CO)[C@@H](O[C@@H]2O[C@H](CO[C@H]3O[C@H](CO[C@H]4O[C@H](CO)[C@@H](O)[C@H](O)[C@@H]4O[C@H]4O[C@H](CO)[C@@H](O)[C@H](O)[C@@H]4O)[C@@H](O)[C@H](O[C@H]4O[C@H](CO)[C@@H](O)[C@H](O)[C@@H]4O[C@H]4O[C@H](CO)[C@@H](O)[C@H](O)[C@@H]4O)[C@@H]3O)[C@@H](O)[C@H](O[C@H]3O[C@H](CO)[C@@H](O)[C@H](O)[C@@H]3O[C@H]3O[C@H](CO)[C@@H](O)[C@H](O)[C@@H]3O[C@H]3O[C@H](CO)[C@@H](O)[C@H](O)[C@@H]3O)[C@@H]2O)[C@@H]1O` (stereo partly drawn) [Man9GlcNAc], at DC-SIGNR CRD [2], the “1H-15N HSQC NMR titration, chemical shift perturbation” value is “binding of Man9GlcNAc caused substantial broadening and disappearance of a number of CRD peaks”.

The Kd is the free concentration of one partner at which half of the binding sites on the other are occupied at equilibrium, for simple one-to-one binding.
